Reference: patent publication US8920854B2, “Oral care compositions for treating xerostomia” (Georgia Regents Research Institute, priority 2009, dated 2014)

How the values were obtained:
Format in all cases: in vivo, mouse
[1] = system: TUNEL-positive cells in submandibular gland; experiment: Apoptotic activity in salivary glands by TUNEL staining, NOD/Lt mice; conditions: 0.2% EGCG in drinking water, 8, 16, 22 weeks
Source text: Submandibular salivary gland samples from BALB/c (left), water-fed (middle), and EGCG-fed (right) NOD/Lt mice were stained with ApopTag Plus Peroxidase in situ apoptosis detection method according to the manufacturer's instructions. Arrows point to the nuclear staining of TUNEL-positive cells. […] Submandibular salivary gland samples from BALB/c (left), water-fed (middle), and EGCG-fed (right) NOD/Lt mice were immunostained with the anti-PCNA antibody. Arrows point to the nuclear staining of PCNA-positive cells. […] Submandibular salivary gland samples from BALB/c (left), water-fed (middle), and EGCG-fed (right) NOD/Lt mice were immunostained with the anti-Ki-67 antibody. Arrows point to the nuclear staining of Ki-67-positive cells. […] Solid bars represent the average percentage of TUNEL-positive cells in the submandibular gland of water-fed NOD/Lt mice. Open bars represent the average of TUNEL-positive cells in the submandibular gland of EGCG-fed NOD/Lt mice. […] Solid bars represent the average percentage of PCNA-positive cells in the submandibular gland of water-fed NOD/Lt mice. […] The apoptotic activity was determined by TUNEL staining of the salivary glands (FIG. 5A) and quantification (FIG. 6A). […] Although it was not determined which cells were undergoing apoptosis, there was no significant apoptotic activity in the majority of secretory cells (Gillespie K, et al. 2008).

Ki-67 = Ki-67 immunostaining of submandibular glands, NOD/Lt mice; conditions: 0.2% EGCG in drinking water, 8, 16, 22 weeks
Source text: (§1) Submandibular salivary gland samples from BALB/c (left), water-fed (middle), and EGCG-fed (right) NOD/Lt mice were stained with ApopTag Plus Peroxidase in situ apoptosis detection method according to the manufacturer's instructions. Arrows point to the nuclear staining of TUNEL-positive cells. […] Submandibular salivary gland samples from BALB/c (left), water-fed (middle), and EGCG-fed (right) NOD/Lt mice were immunostained with the anti-PCNA antibody. Arrows point to the nuclear staining of PCNA-positive cells. […] Submandibular salivary gland samples from BALB/c (left), water-fed (middle), and EGCG-fed (right) NOD/Lt mice were immunostained with the anti-Ki-67 antibody. Arrows point to the nuclear staining of Ki-67-positive cells. […] Solid bars represent the average percentage of TUNEL-positive cells in the submandibular gland of water-fed NOD/Lt mice. Open bars represent the average of TUNEL-positive cells in the submandibular gland of EGCG-fed NOD/Lt mice. […] Solid bars represent the average percentage of PCNA-positive cells in the submandibular gland of water-fed NOD/Lt mice. Open bars represent the average of PCNA-positive cells in the submandibular gland of EGCG-fed NOD/Lt mice. […] Solid bars represent the average of Ki-67-positive cells in the submandibular gland of water-fed NOD/Lt mice. Open bars represent the average of Ki-67-positive cells in the submandibular gland of […] […]

NOD/Lt mice = experiment: Submandibular gland lymphocytic infiltration in EGCG/water-fed NOD/Lt mice; conditions: 0.2% EGCG in drinking water
Method: Animals were fed either with EGCG/water or water only. At the age of 8 (n=36), 16 (n=36) and 22 weeks (n=27), submandibular glands were dissected, processed and stained by H&E. Three randomly selected areas of lymphocytic infiltrates were measured in each gland as relative density units generated by BIOQUANT NOVA PRIME 6.75 software, representing area sizes. Error bars are standard error of means (SEM). […] An animal study was conducted to examine whether EGCG fed prior to development of exocrinopathy is protective against salivary gland lymphocyte infiltration and gland abnormalities. Since EGCG is the most abundant green tea polyphenol, and widely used in scientific studies, this compound was selected for this feasibility study using 0.2% EGCG in drinking water (Gillespie K, et al. 2008).

peroxiredoxin 6 = experiment: Antioxidant capacity by immunohistochemistry in NOD mice: peroxiredoxin 6; conditions: 22 weeks
Source text: (§2) FIGS. 8A-8C, 8D-8F show representative immunostaining of peroxiredoxin 6 (FIGS. 8A-C) and catalase (FIGS. 8D-F) expression in glandular epithelium of 22 week old water-fed (FIGS. 8A, 8D) and EGCG-treated NOD mice (FIGS. 8B, 8E) (magnification 200×). FIGS. 8C and 8F show statistical analysis of peroxiredoxin 6 and Catalase-positive cells. Black arrows point to ductal cells; open arrow to acinar cells (FIG. 8B). Salivary gland and pancreas samples were obtained at 22 weeks of age from NOD mice fed water or EGCG-water (12 animals per group), and from control BALB/c mice. The antioxidant capacity represented by protein levels of peroxiredoxin 6, superoxide dismutase 1 (SOD1), catalase, and glutathione peroxidase was measured by immunohistochemstry.

PCNA = PCNA immunostaining of submandibular glands, NOD/Lt mice; conditions: 0.2% EGCG in drinking water, between 16 and 22 weeks of age
Source text: as §1

[2] = system: superoxide dismutase 1 (SOD1); experiment: Antioxidant capacity by immunohistochemistry in NOD mice: SOD1; conditions: EGCG-fed NOD mice, 22 weeks, n=12, P<0.0001
Method: Salivary gland and pancreas samples were obtained at 22 weeks of age from NOD mice fed water or EGCG-water (12 animals per group), and from control BALB/c mice. The antioxidant capacity represented by protein levels of peroxiredoxin 6, superoxide dismutase 1 (SOD1), catalase, and glutathione peroxidase was measured by immunohistochemstry.

catalase = experiment: Antioxidant capacity by immunohistochemistry in NOD mice: catalase; conditions: submandibular salivary glands, EGCG-fed NOD/Lt mice, 22 weeks; n=12, p<0.04
Source text: as §2

With `O=C(O[C@@H]1Cc2c(O)cc(O)cc2O[C@@H]1c1cc(O)c(O)c(O)c1)c1cc(O)c(O)c(O)c1` [EGCG, epigallocatechin-3-gallate] as the molecule, how does the “apoptosis in the glandular epithelium (TUNEL)” value [1] read?
Its value is “did not affect”.

And the “apoptosis in the infiltrates (TUNEL)” value [1]?
The value was “initially raising levels, but blocking the considerable increase seen at 22 weeks in water-fed mice”.

What about the “Ki-67 levels in submandibular glands” value (Ki-67) of the same molecule?
The value was “affected by EGCG in the same pattern”.

What about the “average area of lymphocytic infiltration vs water-fed group” value (NOD/Lt mice; 16 weeks of age, p=0.026) of the same molecule?
Its value is “significantly lower”.

And the “average area of lymphocytic infiltration vs water-fed group” value (NOD/Lt mice; 22 weeks of age)?
Its value is “no significant difference”.

What about the “peroxiredoxin 6 level in the pancreas” value (peroxiredoxin 6; pancreas, EGCG-fed NOD mice, n=12, P<0.0001) of the same molecule?
Its value is “normalized to BALB/c levels”.

And the “expression of peroxiredoxin 6 vs water only fed mice” value (peroxiredoxin 6; submandibular salivary glands, EGCG-fed NOD/Lt mice, n=12, p<0.04)?
The value was “significantly higher”.

And the “PCNA-positive cells in submandibular glands” value (PCNA)?
Its value is “considerably reduces the rise of PCNA”.

And the “SOD1 level in the pancreas” value [2]?
The value was “normalized to BALB/c levels”.

And the “expression of catalase vs water only fed mice” value (catalase)?
The value was “significantly higher”.
